Reference: paper PMC12668310, “High‐Throughput Synthesis and Screening of a Cyanimide Library Identifies Selective Inhibitors of ISG15‐Specific Protease mUSP18” (Angewandte Chemie (International Ed. in English), 2025)
Where two headings read alike, the source gives them in different places.

Target: T1, mUSP18 (Mus musculus, UniProt Q9WTV6)
T1 construct: (46-368); His-tag (N); made in house
T1 sequence (Q9WTV6 46-368): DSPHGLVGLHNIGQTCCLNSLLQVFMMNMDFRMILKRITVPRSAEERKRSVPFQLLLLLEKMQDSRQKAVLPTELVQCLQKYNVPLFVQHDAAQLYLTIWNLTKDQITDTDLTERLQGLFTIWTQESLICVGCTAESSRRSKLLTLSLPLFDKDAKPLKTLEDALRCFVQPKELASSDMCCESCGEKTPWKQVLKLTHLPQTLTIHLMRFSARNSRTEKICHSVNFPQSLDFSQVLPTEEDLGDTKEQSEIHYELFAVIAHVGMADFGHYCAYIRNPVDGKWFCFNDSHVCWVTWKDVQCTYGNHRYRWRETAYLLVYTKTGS
Experiment: High-throughput screening, ISG15ct-RhoMP, single dose 1.25 µM
Assay type: biochemical, murine
Conditions: for inhibition at 1.25 µM: mUSP18 %inhibition

[1] = carboxylic acid (CA) building block alone, read-out: %inh CA only
[2] = carboxylic acid (CA) with coupling reagents DIC/HOBT, read-out: %inh CA + DIC/HOBT

| SMILES | inhibition at 1.25 µM [1] [%] | inhibition at 1.25 µM [2] [%] | inhibition of mUSP18 by individual CA's and coupling reagents (screened with and without DIC/HOBt) |
| --- | --- | --- | --- |
| O=C(O)c1ccccc1CCc1ccccc1 [CA026] | 2.38 | -14.8 | – |
| O=C(O)C(CCc1ccccc1)c1ccccc1 (stereo not drawn) [CA462] | -0.33 | -1.15 | – |
| NS(=O)(=O)c1ccc(CCNS(=O)(=O)c2cccc(C(=O)O)c2)cc1 [CA283] | 7.79 | -9.16 | – |
| CCn1cc([1C@@H]2OCCC[1C@H]2C(=O)O)cn1 [CA400] | 8.86 | 4.12 | – |
| O=C(O)c1ccc(OCc2ccncc2)cc1 [CA105] | 12.9 | 11.9 | – |
| CN(CC1CC1)c1ccc(C(F)(F)F)cc1C(=O)O [CA386] | -2.54 | -7.62 | – |
| O=C(O)c1sccc1S(=O)(=O)NC1CCCCCC1 [CA367] | 1.29 | 5.26 | – |
| O=C(O)c1cccc(Cn2cncn2)c1 [CA361] | -2.66 | 0.1 | – |
| O=C(O)Cc1cc(-c2ccccc2)on1 [CA098] | 21.6 | 14.7 | – |
| O=C(O)c1cc(-c2ccco2)on1 [CA223] | 2.35 | 4.1 | – |
| CC1(C(=O)O)CCCCN1C(=O)OCc1ccccc1 (stereo not drawn) [CA366] | 0.85 | 3.29 | – |
| O=C(O)c1ccc(B(O)O)cc1 [CA020] | -7.88 | -9.11 | – |
| O=C(O)c1ccc(Cn2ccccc2=O)o1 [CA448] | 5.37 | -5.91 | – |
| O=C(O)c1ccc(N2CCCS2(=O)=O)cc1 [CA336] | 1.69 | -1.03 | – |
| O=C(O)Cc1csc(NS(=O)(=O)c2ccccc2)n1 [CA421] | -4.79 | -0.58 | – |
| O=C(O)c1cnn(-c2ccc(C(F)(F)F)cc2)c1 [CA396] | -5.61 | 1.41 | – |
| Cn1nccc1[1C@@H]1C[1C@H]1C(=O)O [CA410] | -4.36 | -9.17 | – |
| O=C(O)c1cnn(CC2CCCCO2)c1 (stereo not drawn) [CA174] | 2.59 | 8.37 | – |
| COc1cc(CC(=O)O)ccc1O [CA050] | -1.29 | -15.5 | – |
| Cc1ccc([1C@@H]2C[1C@H]2C(=O)O)s1 [CA272] | 5.08 | 8.26 | – |

| SMILES | inhibition at 1.25 µM [1] [%] | inhibition at 1.25 µM [2] [%] | inhibition of mUSP18 by individual CA's and coupling reagents (screened with and without DIC/HOBt) |
| --- | --- | --- | --- |
| CN1CCN(CC(=O)O)CC1 [CA076] | -7.27 | -15.7 | – |
| O=C(O)C(=O)N1CCN(c2ccccc2)CC1 [CA261] | 10.4 | 2.36 | – |
| O=C(O)C1CCOC2(CCC2)C1 (stereo not drawn) [CA220] | 7.46 | -0.86 | – |
| COc1ccc(C(=O)O)cc1S(=O)(=O)N1CCCCCC1 [CA217] | 6.36 | 0.58 | – |
| Cc1oc(Cn2cc(Br)cn2)cc1C(=O)O [CA156] | 8.69 | 12.3 | – |
| O=C(O)CCc1ccccc1Br [CA043] | -0.54 | -8.19 | – |
| O=C(O)CC1=NN(c2cccc(Cl)c2)C(=O)C1 [CA345] | 2 | 4.68 | – |
| O=C(O)c1ccc(Oc2cccc(Cl)c2)cn1 [CA351] | 4.42 | 14.8 | – |
| O=C(O)c1ccc(-c2ccccn2)nc1 [CA357] | 4.64 | -1.59 | – |
| O=C(O)C1CCCN(S(=O)(=O)c2cccs2)C1 (stereo not drawn) [CA371] | 1.66 | 2.42 | – |
| Cn1cc(-c2ccc(C(=O)O)o2)cn1 [CA304] | -4.51 | 6.42 | – |
| O=C(O)c1sccc1-n1cccc1 [CA392] | 71.2 | 56.5 | could inhibit mUSP18 |
| Cc1csc(N2CCC(C(=O)O)CC2)n1 [CA274] | 5.76 | 5.39 | – |
| Cc1cccc(COc2cccc(C(=O)O)c2)c1 [CA465] | 2.43 | 2.72 | – |
| O=C(O)C1CCCN1C(=O)C1CC1 (stereo not drawn) [CA404] | -4.12 | -12.2 | – |
| O=C(O)C1(n2cnnn2)CCOCC1 [CA120] | 11.7 | 5.68 | – |
| O=C(O)c1cccc(-c2cnco2)c1 [CA208] | 3.78 | 11.1 | – |
| CN1CCN(C(=O)c2ccccc2C(=O)O)CC1 [CA213] | 9.22 | -1.04 | – |
| Cc1c[nH]c(=O)n1-c1cccc(C(=O)O)c1 [CA397] | -10.2 | -2.23 | – |
| O=C(O)c1ccc(F)c(S(=O)(=O)N2CCC2)c1 [CA305] | -6.19 | 9.63 | – |
